Values after ≈ are worked out from the molar mass of the structure shown.
What was measured:
[1] = system: Helminthosporium sigmoidium var irregulare; assay: Activity against microorganisms; assay type: cell-based
Pyricularia oryzae = assay type: cell-based
Cochlioborus miyabeanus = assay: Activity against microorganisms; assay type: cell-based
Rhodotorula rubra = assay: Activity against microorganisms; assay type: cell-based
Cryptococcus neoformans = assay: Activity against microorganisms; assay type: cell-based
P388 leukemia = assay: Antitumour activity upon P388 leukemia in mice; assay type: in vivo, mouse; details: 0.00625 mg/kg/day, intraperitoneal, 9 consecutive days; 1×10^6 cells/animal i.p. transplanted
Description: The therapeutic effects of P-3 (dosed intraperito-nearly for 9 consecutive days) upon P388 leukemia in mice (1×10^6 cells/animal, mouse, intra-peritoneally transplanted) was investigated.

Trichophyton rubrum = assay: Activity against microorganisms; assay type: cell-based
Pellicularia sasakii = assay: Activity against microorganisms; assay type: cell-based
Solubility = assay type: physicochemical
Sclerotinia screrotiorum = assay: Activity against microorganisms; assay type: cell-based
Fusicladium levieri = assay: Activity against microorganisms; assay type: cell-based
Escherichia coli = assay: Antimicrobial activity, paper disc method; assay type: cell-based; details: paper disc 8 mm, 0.02 ml of a 300 μg/ml solution, trypticase-soy agar
Experimental: (§1) With trypticase-soy agar (BBL) as an assay medium, the inhibitory concentrations against the microorganisms described below were investigated by the paper disc method. Filter-paper discs (Toyo Seisakusho, thin-type, 8 mm in dia.) each impregnated with 0.02 ml of a 300 μg/ml solution of P-3 were placed on agar plates respectively inoculated with the microorganisms described below. P-3 had no activity against the following bacteria: Escherichia coli, Proteus vulgaris, Proteus mirabilis, Pseudomonas aeruginosa, Staphylococcus aureus, Bacillus subtilis, Bacillus cereus, Klebsiella pneumoniae, Serratia marcescens, and Mycobacterium avium.

Klebsiella pneumoniae = assay: Antimicrobial activity, paper disc method; assay type: cell-based; details: paper disc 8 mm, 0.02 ml of a 300 μg/ml solution, trypticase-soy agar
Experimental: as §1

Proteus mirabilis = assay: Antimicrobial activity, paper disc method; assay type: cell-based; details: paper disc 8 mm, 0.02 ml of a 300 μg/ml solution, trypticase-soy agar
Experimental: as §1

Staphylococcus aureus = assay: Antimicrobial activity, paper disc method; assay type: cell-based; details: paper disc 8 mm, 0.02 ml of a 300 μg/ml solution, trypticase-soy agar
Experimental: as §1

Bacillus cereus = assay: Antimicrobial activity, paper disc method; assay type: cell-based; details: paper disc 8 mm, 0.02 ml of a 300 μg/ml solution, trypticase-soy agar
Experimental: as §1

Pseudomonas aeruginosa = assay: Antimicrobial activity, paper disc method; assay type: cell-based; details: paper disc 8 mm, 0.02 ml of a 300 μg/ml solution, trypticase-soy agar
Experimental: as §1

Mycobacterium avium = assay: Antimicrobial activity, paper disc method; assay type: cell-based; details: paper disc 8 mm, 0.02 ml of a 300 μg/ml solution, trypticase-soy agar
Experimental: as §1

Serratia marcescens = assay: Antimicrobial activity, paper disc method; assay type: cell-based; details: paper disc 8 mm, 0.02 ml of a 300 μg/ml solution, trypticase-soy agar
Experimental: as §1

Proteus vulgaris = assay: Antimicrobial activity, paper disc method; assay type: cell-based; details: paper disc 8 mm, 0.02 ml of a 300 μg/ml solution, trypticase-soy agar
Experimental: as §1

Bacillus subtilis = assay: Antimicrobial activity, paper disc method; assay type: cell-based; details: paper disc 8 mm, 0.02 ml of a 300 μg/ml solution, trypticase-soy agar
Experimental: as §1

Talaromyces avellaneus = assay: Growth inhibition of a fungus on an agar plate; assay type: cell-based; details: Hamigera avellanea, pH 7.0, read-out: minimal inhibitory concentration
Experimental: On the other hand, the growth of a fungus, Talaromyces avellaneus is inhibited by P-3 on an agar plate consisting of 3.5 g disodium hydrogen phosphate, 0.5 g monopotassium dihydrogen phosphate, 5 g yeast extract (Difco), 10 g glucose, 15 g agar, 1000 ml distilled water, pH 7.0. The minimal inhibitory concentration was 3 μg/ml for P-3.

[2] = Preliminary acute toxicity test with mice; details: mouse, in vivo, ip, intraperitoneal injection

In the case of `COc1cc2cc(c1Cl)N(C)C(=O)CC(OC(=O)C(C)C)C1(C)OC1C(C)C1CC(O)(NC(=O)O1)C(OC)C=CC=C(C)C2` (centres unmarked) [P-3], the “activity against Helminthosporium sigmoidium var irregulare” value [1] is reported as “had the activity”, the “activity against Pyricularia oryzae” value (Pyricularia oryzae) is reported as “had the activity” and the “activity against Cochlioborus miyabeanus” value (Cochlioborus miyabeanus) is reported as “had the activity”. The “activity against Rhodotorula rubra” value (Rhodotorula rubra) was “had the activity”, the “activity against Cryptococcus neoformans” value (Cryptococcus neoformans) was “had the activity” and the life-span-extending ratio (P388 leukemia) was 168%. For the same compound, the “activity against Trichophyton rubrum” value (Trichophyton rubrum) was “had the activity”, the “activity against Pellicularia sasakii” value (Pellicularia sasakii) was “had the activity” and the Solubility (Solubility; acetone) was “Soluble”. For the same compound, the Solubility (Solubility; benzene) was “Sparingly soluble”, the Solubility (Solubility; chloroform) was “Soluble” and the Solubility (Solubility; dimethylsulfoxide) was “Soluble”. For the same compound, the Solubility (Solubility; ethanol) was “Soluble”, the Solubility (Solubility; ether) was “Sparingly soluble” and the Solubility (Solubility; ethyl acetate) was “Soluble”. The Solubility (Solubility; hexane) was “Insoluble”, the Solubility (Solubility; methanol) was “Soluble” and the Solubility (Solubility; petr.ether) was “Insoluble”. The Solubility (Solubility; pyridine) was “Soluble”, the Solubility (Solubility; tetrahydrofuran) was “Soluble” and the Solubility (Solubility; water) was “Insoluble”. The “activity against Sclerotinia screrotiorum” value (Sclerotinia screrotiorum) was “had the activity”, the “activity against Fusicladium levieri” value (Fusicladium levieri) was “had the activity” and the “activity against bacteria (Escherichia coli)” value (Escherichia coli) was “no activity”. The “activity against bacteria (Klebsiella pneumoniae)” value (Klebsiella pneumoniae) was “no activity”, the “activity against bacteria (Proteus mirabilis)” value (Proteus mirabilis) was “no activity” and the “activity against bacteria (Staphylococcus aureus)” value (Staphylococcus aureus) was “no activity”. For the same compound, the “activity against bacteria (Bacillus cereus)” value (Bacillus cereus) was “no activity”, the “activity against bacteria (Pseudomonas aeruginosa)” value (Pseudomonas aeruginosa) was “no activity” and the “activity against bacteria (Mycobacterium avium)” value (Mycobacterium avium) was “no activity”. The “activity against bacteria (Serratia marcescens)” value (Serratia marcescens) was “no activity”, the “activity against bacteria (Proteus vulgaris)” value (Proteus vulgaris) was “no activity” and the “activity against bacteria (Bacillus subtilis)” value (Bacillus subtilis) was “no activity”. For the same compound, the MIC (Talaromyces avellaneus) was 3 µg/mL (≈ 4.72 µM) and the LD50 [2] was greater than 0.313 mg/kg.
